Like-named read-outs stand apart in the source and are kept apart here.
Assays:
porcine RBCs = experiment: Nonspecific binding of Lu-BSA to porcine RBCs (base-activated chemiluminescence); type: cell-based, pig
Method: Blood was collected from Landrace-Duroc swine from a closed herd. Pigs from this herd had previously expressed episodes of porcine stress syndrome (malignant hyperthermia) following halothane anesthesia. The blood was collected into acidic citrated dextrose solution in standard blood bags. The blood was diluted 1:10 in phosphate (0.1M) buffered saline (PBS), pH 7.4, in 10 ml aliquots, centrifuged in a clinical centrifuge, and the erythrocytes were resuspended in fresh PBS. The cells were stored at 4° C. until used in the various assays. The post-collection chronological age of the RBCs used for a particular assay is noted in the results for each assay. The cells were counted in an automated cell counter (Coulter ZBI, Coulter Electronics, Inc., Hialeah, Fla. 33010). Nonspecific binding of Lu-BSA to porcine RBCs was measured following treatment with hydrogen peroxide, pyruvate, and/or 3-amino-L-tyrosine at 4°, 37°, or 45° C. The exposure times for those agents were 15 min, 30 min, or 72 hours. The reagents were removed by centrifugation. Three binding protocols were followed: (1) 0.25 ml of 1:20 RBCs (19 days post collection) were incubated with 0.25 ml of 1 mg/ml Lu-BSA in PBS, pH 6.9, for 30 min at 37° C. and washed (Table 1); (2) 0.05 ml of packed RBCs (less than 24 hours post collection) were resuspended in 0.2 ml of the Lu-BSA solution and incubated overnight at 4° C. […] The cells in all three protocols were washed once in PBS, pH 7.4, and resuspended in PBS to final dilutions of 1:20 for (1) and 1:30 for (2) and (3). Following this preparation, 100 μl of each cell suspension were added to 500 μl of PBS, pH 7.4, in a scintillation vial. The vial was placed in the photometer and the solution was activated by the addition of 100 μl 0.1N NaOH. The settings for the photometer were as previously described for the Con A-Lu-BSA.

pig RBCs = experiment: Thermal fragility / hemolysis of RBCs (410 nm absorbance of supernatant); type: cell-based; conditions: for thermal hemolysis, 410 nm optical absorbance, Hot air / thermal hemolysis, 410 nm optical absorbance, Microwave exposed / 410 nm optical absorbance of 1:2 diluted supernatant, Hot air / 410 nm optical absorbance of 1:2 diluted supernatant, Microwave exposed: 43° C. (10 min); for thermal hemolysis, 410 nm optical absorbance, Hot air / thermal hemolysis, 410 nm optical absorbance, Microwave exposed: Con A-Lu-BSA labeled RBCs 11-14 days post collection; for effect on thermal hemolysis, in words: 48° C. for 30 min; for 410 nm optical absorbance of 1:2 diluted supernatant, 4° C. / 410 nm optical absorbance of 1:2 diluted supernatant, Hot air / 410 nm optical absorbance of 1:2 diluted supernatant, Microwave exposed: RBCs 6 days post collection
Method: Blood was collected from Landrace-Duroc swine from a closed herd. Pigs from this herd had previously expressed episodes of porcine stress syndrome (malignant hyperthermia) following halothane anesthesia. The blood was collected into acidic citrated dextrose solution in standard blood bags. The blood was diluted 1:10 in phosphate (0.1M) buffered saline (PBS), pH 7.4, in 10 ml aliquots, centrifuged in a clinical centrifuge, and the erythrocytes were resuspended in fresh PBS. The cells were stored at 4° C. until used in the various assays. The post-collection chronological age of the RBCs used for a particular assay is noted in the results for each assay. The cells were counted in an automated cell counter (Coulter ZBI, Coulter Electronics, Inc., Hialeah, Fla. 33010).
Red blood cells were heated in 1 or 1.5 ml aliquots of PBS pH 7.4 with or without additional reagents in cellulose nitrate or polypropylene centrifuge tubes. Two concentrations of cells were used as indicated in the results. Heating was accomplished by three methods: microwave radiation, hot air, or water bath heating. The microwave device was a circularly polarized waveguide powered by a 1-kw S-band (microwave) amplifier (Model 10704,MCL, Inc., La Grange, Ill.). The heating of the sample at a specific absorption rate (SAR) of 91±4 W/kg (continuous wave (CW), 2450MHz) was offset by an air-cooling system that maintained a constant temperature. This system has been previously described in greater detail in Kiel, J. L. and D. N. Erwin, "Microwave and thermal interactions with oxidative hemolysis", 16 Physiol. Chem. Phys. Med. NMR, 317-323 (1984), which reference is hereby incorporated in its entirety by this specific reference thereto. […] The temperature was held within ±0.2° C. by this system. In the absence of microwave radiation, the temperature was held constant by hot air alone. The microwave/hot air system was brought to 37° C. for 15 min. prior to raising the temperature to 43° C. by microwaves or hot hot air. The water bath heating held the temperature within ±0.5° C. Heating times were 10, 15, or 30 min. The temperatures examined were 37°, 43°, 45°, or 48°.
Hemoglobin released into the supernatants of the heated cells were determined by the method described in the above-incorporated reference of Kiel and Erwin (1984). In brief, the supernatants were collected following centrifugation in a clinical centrifuge, diluted 1:2 in PBS, pH 7.4, and the optical absorbances at 410 nm were determined in a dual beam spectrophotometer. Pyruvate, lactate, inosine, hydrogen peroxide, mimosine, and/or 3-amino-L-tyrosine were added to the samples as indicated in Tables 1-3 and 9-12. All reagents were diluted in PBS and the final volumes of the samples were constant.

[1] = system: Con A-Lu-BSA labeled pig RBCs; experiment: Chemiluminescence of Con A-Lu-BSA labeled pig RBCs with exogenous hydrogen peroxide; type: cell-based
Method: The luminol-bovine serum albumin (Lu-BSA) complex was made by mixing 2 mg luminol (5-amino-2, 3-dihydrophthalazine-1,4-dione), 0.2 ml of 2 mg BSA/ml PBS (pH 6.9), and 1.6 ml of PBS, pH 6.9. The preparation was then passed through a 0.22 μm nitrocellulose filter to remove insoluble luminol. Next, 0.2 ml of 2 mg Con A/ml of PBS, pH 6.9, was added to the filtrate. After gentle mixing, 10 μl of 25% glutaraldehyde were added. The solution was incubated in the refrigerator for 1 hour. To stop the conjugation, 100 mg of glycine was added to the solution. The solution was then pressed through a 48 ml column of dextran gel filtration beads equilibrated with PBS, pH 6.9. The gel exclusion size was greater than 5000 for globular molecules. The fractions were collected and tested for luminescent labeling activity.
One ml of supernatant of each 10 ml aliquot of 1:20 diluted RBCs was replaced with 1 ml of Con A-Lu-BSA solution as previously described. The preparation was incubated for 15 min. at 37° C. in a water-jacketedcell culture incubator. The cells were then pelleted in a clinical centrifuge, resuspended in PBS, and washed in the same manner two additional times. The washed cells were maintained at 4° C. until used the same day of preparation.
Following exposure to chemical or physical stressors, 100 μl of the RBC suspension was added to 500 μl of PBS, pH 7.4, containing 0.3% hydrogen peroxide, in a scintillation vial. To activate the sample, 100 μl of 0.1N NaOH were added to the vial in place in an ATP photometer (Integrating ATP Photometer Model 3000, Science Applications, San Diego, California 92121) The photometer was set to a dark count of 1 count/30 second at a sensitivity of 600 at room temperature (approximately 23° C.). All counts followed a 5 second delay period to allow for stabilization of the photomultiplier. The counts are reported as counts/30 sec.
All essays were run at room temperature. The post-collection age of those cells was 11-18 days and the cells were used the day of labeling. […] Pyruvate (1.43 mM), an autoxidizable substrate, doubled the CL of labeled cells.

peroxidase = experiment: 3-aminotyrosine oxidation by peroxidase; type: biochemical
[2] = system: Con A-Lu-BSA labeled pig RBCs; experiment: Chemiluminescence of Con A-Lu-BSA labeled pig RBCs with exogenous hydrogen peroxide; type: cell-based; conditions: Sus scrofa, Erythrocyte, 1.43 mM, no cells; read-out: Percent control
[3] = system: 20-methylcholanthrene induced tumors; conditions: cited from earlier work
[4] = in vivo; cited from earlier work
[5] = 1.43 mM, labeled RBCs 11-18 days post collection, room temperature
[6] = Sus scrofa, Erythrocyte, 1.43 mM, read-out: Percent control

OO [Hydrogen peroxide, reference compound]
CL (30 s) (porcine RBCs; Lu-BSA binding, pretreatment 44 mM, 37° C., 15 min, RBCs 19 days post collection): 558 ± 157 counts/30 s
activation at 44000 µM (porcine RBCs; Sus scrofa, 0.25 h, 44 mM, 15 min, 37° C. (hot air), 1.4×10^9 RBCs/ml, read-out: increase in bound Lu-BSA compared to cells maintained in PBS): 721%
activation at 11700 µM (porcine RBCs; Sus scrofa, 0.5 h, hydrogen peroxide 11.7 mM, 37° C., 30 min, vs 4° C. control, read-out: Percent difference from control): 254%
CL (30 s) (porcine RBCs; hydrogen peroxide 11.7 mM, 37° C., 30 min, RBCs less than 24 hours post collection): 1346 ± 386 counts/30 s

OC[C@H]1O[C@@H](n2cnc3c(O)ncnc32)[C@H](O)[C@@H]1O [Inosine]
benefit of storing RBCs in reagent in respect to thermal fragility, in words (pig RBCs; 10 mM): no significant benefit
thermal hemolysis, 410 nm optical absorbance, Hot air (pig RBCs; 10 mM): 0.597 ± 0.080
thermal hemolysis, 410 nm optical absorbance, Microwave exposed (pig RBCs; 10 mM): 0.578 ± 0.045
effect on CL of labeled cells, in words ([1]; 1.43 mM): small but significant increase
CL (30 sec) [1, 5]: 34,972 ± 2,732 counts/30 sec
activity at 1430 µM [1, 6]: 115%

NC(Cn1ccc(=O)c(O)c1)C(=O)O [L--mimosine, L-mimosine]
Percent difference from controls (corrected), 4° C. (pig RBCs; 340 μM, 48° C. 30 min): 95.1%
Percent difference from controls (corrected), 48° C. (pig RBCs; 340 μM, 48° C. 30 min): 21.5%
410 nm absorbance, Actual (pig RBCs; 340 μM, 48° C. 30 min, RBCs 20 days post collection, 1.4×10^9 per ml): 0.965 ± 0.026
410 nm absorbance, Corrected (pig RBCs; 340 μM, 48° C. 30 min, corrected for RBC dilution): 0.724
effect on thermal hemolysis, in words (pig RBCs; 340 μM, listed as Mimosine): had no effect
effect on thermal hemolysis, in words (pig RBCs; 340 μM, listed as mimosine): failed to protect
CL (30 sec) ([1]; 630 μM): 8,555 ± 1,044 counts/30 sec
level of CL below natural RBC CL ([1]; 630 μM): 36%
effect of prewashing labeled cells on CL, in words ([1]; 5 mM, 30 min at room temperature): no significant effect
activity at 630 µM ([1]; Sus scrofa, Erythrocyte, 630 μM, read-out: Percent control): 28%
activity at 5000 µM ([1]; Sus scrofa, Erythrocyte, pretreatment 5 mM, 30 min, washed before activation, read-out: Percent control): 94%
inhibition at 630 µM ([1]; Sus scrofa, 630 μM, read-out: inhibition of CL): 72%
CL (30 sec) ([1]; pretreatment 5 mM, 30 min, washed before activation): 28,517 ± 2,591 counts/30 sec
mode of inhibition, in words (peroxidase): uncompetitive inhibitor

CC(O)C(=O)O (centres unmarked) [Lactate]
change in hemolysis, in words (pig RBCs; 10 mM, 43° C., RBCs 6 days post-collection): insignificant increases
410 nm optical absorbance of 1:2 diluted supernatant, 4° C. (pig RBCs; 10 mM): 0.362
thermal hemolysis, 410 nm optical absorbance, Hot air (pig RBCs; 10 mM): 0.667 ± 0.04
thermal hemolysis, 410 nm optical absorbance, Microwave exposed (pig RBCs; 10 mM): 0.643 ± 0.02
410 nm optical absorbance of 1:2 diluted supernatant, Hot air (pig RBCs; 10 mM): 0.440 ± 0.078
410 nm optical absorbance of 1:2 diluted supernatant, Microwave exposed (pig RBCs; 10 mM): 0.424 ± 0.014
effect on CL of labeled cells, in words ([1]; 1.43 mM): insignificant increases
CL (30 sec) [1, 5]: 30,930 ± 3,399 counts/30 sec
activity at 1430 µM [1, 6]: 102%

CC(=O)C(=O)O [Pyruvate]
CL (30 s) (porcine RBCs; 1.33 mM, 45° C., 30 min): 1203 ± 266 counts/30 s
CL (counts/30 s) (porcine RBCs; 1.33 mM, 30 min at 37° C., RBCs 72 hours post collection): 2348 ± 646 counts/30 s
activation at 1330 µM (porcine RBCs; Sus scrofa, 1.33 mM during exposure to 45° C., read-out: increase in Lu-BSA binding over the 45° C. exposure alone): 101%
activation at 1330 µM (porcine RBCs; Sus scrofa, 0.5 h, 1.33 mM, 45° C., 30 min, vs 4° C. control, read-out: Percent difference from control): 216%
activation at 1330 µM (porcine RBCs; Sus scrofa, 0.5 h, 1.33 mM, 30 min at 37° C., read-out: Percent difference from control): 166%
fold induction at 1330 µM (porcine RBCs; Sus scrofa, 0.5 h, 1.33 mM, 30 min at 37° C., read-out: increase of Lu-BSA binding): 2.7
410 nm optical absorbance of 1:2 diluted supernatant, 4° C. (pig RBCs; 10 mM): 0.363
thermal hemolysis, 410 nm optical absorbance, Hot air (pig RBCs; 10 mM): 0.646 ± 0.02
thermal hemolysis, 410 nm optical absorbance, Microwave exposed (pig RBCs; 10 mM): 0.646 ± 0.07
410 nm optical absorbance of 1:2 diluted supernatant, Hot air (pig RBCs; 10 mM): 0.427 ± 0.015
410 nm optical absorbance of 1:2 diluted supernatant, Microwave exposed (pig RBCs; 10 mM): 0.374 ± 0.055
spontaneous hemolysis reading (pig RBCs; pyruvate 1.33 mM, 37° C., RBCs 72 hours post collection): 0.362±0.016
CL (30 sec) ([1]; 1.43 mM, no cells): 420 counts/30 sec
CL (30 sec) [1, 5]: 60,732 ± 3,258 counts/30 sec
activity at 1430 µM [1, 6]: 200%
activity at 1430 µM [2]: 1.4%

S=P(N1CC1)(N1CC1)N1CC1 [thio-TEPA, reference compound]
effect on tumor growth, in words ([3]; agent alone): Neither myeloperoxidase nor thio-TEPA alone were effective

myeloperoxidase
effect on tumor growth, in words ([3]; agent alone): Neither myeloperoxidase nor thio-TEPA alone were effective
effect on tumor growth, in words ([3]; myeloperoxidase injected in combination with thio-TEPA): significant reduction in tumor growth
biological half-life [4]: about 24 hours

Source: US4870002A, “Method of prevention of oxidative injury to cells” (priority 1985, dated 1989)
